Results: patent US20230117034A1, “PYRAZOLOTRIAZINES” (Bayer Aktiengesellschaft, priority 2019, published 2023)

How the values were obtained:
[1] = biological target: T1, CDK12 (nuclear staining in CAL-120 cells) (Homo sapiens, UniProt Q9NYV4); experiment: CDK12 nuclear protein level: immunofluorescence/high content analysis (CAL-120); format: cell-based; conditions: for DC50: CAL-120 cells, 24 h, immunofluorescence, 50% reduction of nuclear CDK12 staining intensity, median, read-out: CDK12 degradation IF, DC50- [mol/l] (median); for (IC50 CDK12 high ATP) to (Degradation DC50 CDK12) ratio: ratio of IC50 CDK12 high ATP kinase assay to DC50 CDK12 degradation (IF, CAL-120)
T1 construct: endogenous in cells; host or cells: CAL-120 human breast cancer cells (DSMZ ACC 459)
T1 sequence (Q9NYV4 whole entry): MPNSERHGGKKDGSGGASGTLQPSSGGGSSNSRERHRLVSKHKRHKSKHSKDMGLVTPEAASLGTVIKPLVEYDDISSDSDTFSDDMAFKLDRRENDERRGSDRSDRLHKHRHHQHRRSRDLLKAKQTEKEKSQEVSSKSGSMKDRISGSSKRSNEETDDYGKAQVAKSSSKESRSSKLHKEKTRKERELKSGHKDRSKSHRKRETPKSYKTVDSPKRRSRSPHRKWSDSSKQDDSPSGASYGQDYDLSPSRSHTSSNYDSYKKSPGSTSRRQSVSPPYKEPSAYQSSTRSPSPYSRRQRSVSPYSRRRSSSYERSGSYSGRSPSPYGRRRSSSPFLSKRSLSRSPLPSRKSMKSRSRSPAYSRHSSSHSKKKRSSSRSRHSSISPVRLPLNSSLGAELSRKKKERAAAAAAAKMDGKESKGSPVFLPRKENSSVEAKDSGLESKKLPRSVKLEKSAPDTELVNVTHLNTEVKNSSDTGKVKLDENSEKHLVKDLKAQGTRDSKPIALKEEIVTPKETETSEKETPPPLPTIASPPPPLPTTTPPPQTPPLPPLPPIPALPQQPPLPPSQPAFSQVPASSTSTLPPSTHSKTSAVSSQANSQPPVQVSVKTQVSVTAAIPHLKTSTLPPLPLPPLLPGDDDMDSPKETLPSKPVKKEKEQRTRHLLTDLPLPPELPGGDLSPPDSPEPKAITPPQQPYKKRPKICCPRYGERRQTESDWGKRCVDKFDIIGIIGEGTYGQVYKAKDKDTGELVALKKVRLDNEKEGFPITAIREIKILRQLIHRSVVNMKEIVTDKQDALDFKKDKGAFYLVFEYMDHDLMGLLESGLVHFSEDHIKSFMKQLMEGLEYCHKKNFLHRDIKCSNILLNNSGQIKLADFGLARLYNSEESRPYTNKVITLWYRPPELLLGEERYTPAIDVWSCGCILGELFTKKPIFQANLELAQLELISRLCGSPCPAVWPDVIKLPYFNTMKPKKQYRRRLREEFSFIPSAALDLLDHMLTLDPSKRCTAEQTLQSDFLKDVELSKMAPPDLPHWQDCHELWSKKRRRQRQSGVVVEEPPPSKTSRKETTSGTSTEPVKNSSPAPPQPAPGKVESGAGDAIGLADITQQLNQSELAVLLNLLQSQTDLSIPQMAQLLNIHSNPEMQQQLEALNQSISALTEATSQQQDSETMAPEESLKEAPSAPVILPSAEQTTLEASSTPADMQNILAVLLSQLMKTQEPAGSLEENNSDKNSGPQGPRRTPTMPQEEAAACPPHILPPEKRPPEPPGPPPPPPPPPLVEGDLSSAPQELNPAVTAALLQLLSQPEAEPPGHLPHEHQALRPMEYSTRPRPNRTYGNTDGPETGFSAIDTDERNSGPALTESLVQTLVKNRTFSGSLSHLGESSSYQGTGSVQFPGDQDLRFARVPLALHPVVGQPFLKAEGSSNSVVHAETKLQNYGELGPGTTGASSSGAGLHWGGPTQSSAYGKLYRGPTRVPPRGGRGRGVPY
T1 sequence (O75909 whole entry partner): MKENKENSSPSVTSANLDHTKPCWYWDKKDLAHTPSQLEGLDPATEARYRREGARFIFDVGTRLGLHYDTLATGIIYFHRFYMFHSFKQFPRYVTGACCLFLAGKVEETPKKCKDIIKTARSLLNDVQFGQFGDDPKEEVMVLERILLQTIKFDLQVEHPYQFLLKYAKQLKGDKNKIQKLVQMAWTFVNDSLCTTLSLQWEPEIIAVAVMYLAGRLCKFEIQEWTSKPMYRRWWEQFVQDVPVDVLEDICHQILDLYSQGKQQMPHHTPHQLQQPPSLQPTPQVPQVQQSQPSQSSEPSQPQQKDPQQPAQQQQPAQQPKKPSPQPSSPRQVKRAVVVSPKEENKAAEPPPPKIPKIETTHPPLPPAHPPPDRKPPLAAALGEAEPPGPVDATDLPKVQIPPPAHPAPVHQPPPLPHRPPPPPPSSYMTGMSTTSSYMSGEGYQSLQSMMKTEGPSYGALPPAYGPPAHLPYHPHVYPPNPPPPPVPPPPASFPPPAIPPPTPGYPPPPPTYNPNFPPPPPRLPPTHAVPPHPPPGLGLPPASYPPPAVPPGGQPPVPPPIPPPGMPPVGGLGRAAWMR
Outline: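 CAL-120 cells were treated with compound for 24 h at 37 °C, fixed with PFA and immunostained for CDK12. Nuclear CDK12 intensity was quantified by automated image analysis and normalized to DMSO and control. DC50 is the concentration giving 50% reduction of nuclear staining.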

[2] = test system: MDA-MB-231, human breast cancer cells; experiment: Proliferation assay MDA-MB-231 (crystal violet, 4 days); format: cell-based; conditions: Homo sapiens, MDA-MB-231, 96 h, MDA-MB-231 cells, median, read-out: Prolif-MDA MB-231, IC50-[mol/l] (median)
Outline: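 CAL-120 or MDA-MB-231 cells grown 24 h, then exposed 4 days to compound (0.01–10 micromol/L, 0.1% DMSO). Crystal violet staining, absorbance at 595 nm, normalised to a zero-point plate (0%) and untreated cells (100%); IC50 by 4-parameter fit.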

[3] = biological target: T2, CDK9/CycT1 (Homo sapiens, UniProt P50750); experiment: CDK9/CycT1 high ATP kinase assay (TR-FRET, 2 mM ATP); format: biochemical; conditions: 2 mM ATP (high ATP); median; read-out: CDK9/CyclinT1, 2 mM ATP (high ATP), IC50 (median)
T2 construct: Recombinant full-length His-tagged human CDK9 and CycT1; purchased Life Technologies PV4131; host or cells: insect cells
T2 sequence (P50750 whole entry): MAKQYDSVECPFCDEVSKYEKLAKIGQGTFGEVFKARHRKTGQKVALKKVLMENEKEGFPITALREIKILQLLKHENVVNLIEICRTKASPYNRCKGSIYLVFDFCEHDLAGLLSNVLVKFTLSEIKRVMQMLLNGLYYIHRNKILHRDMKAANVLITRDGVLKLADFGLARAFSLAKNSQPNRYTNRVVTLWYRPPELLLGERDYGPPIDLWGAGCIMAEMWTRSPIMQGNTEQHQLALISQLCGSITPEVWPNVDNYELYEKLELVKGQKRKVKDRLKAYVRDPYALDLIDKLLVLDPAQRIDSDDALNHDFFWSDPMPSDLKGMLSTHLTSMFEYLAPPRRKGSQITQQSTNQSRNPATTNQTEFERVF
T2 sequence (O60563 whole entry partner): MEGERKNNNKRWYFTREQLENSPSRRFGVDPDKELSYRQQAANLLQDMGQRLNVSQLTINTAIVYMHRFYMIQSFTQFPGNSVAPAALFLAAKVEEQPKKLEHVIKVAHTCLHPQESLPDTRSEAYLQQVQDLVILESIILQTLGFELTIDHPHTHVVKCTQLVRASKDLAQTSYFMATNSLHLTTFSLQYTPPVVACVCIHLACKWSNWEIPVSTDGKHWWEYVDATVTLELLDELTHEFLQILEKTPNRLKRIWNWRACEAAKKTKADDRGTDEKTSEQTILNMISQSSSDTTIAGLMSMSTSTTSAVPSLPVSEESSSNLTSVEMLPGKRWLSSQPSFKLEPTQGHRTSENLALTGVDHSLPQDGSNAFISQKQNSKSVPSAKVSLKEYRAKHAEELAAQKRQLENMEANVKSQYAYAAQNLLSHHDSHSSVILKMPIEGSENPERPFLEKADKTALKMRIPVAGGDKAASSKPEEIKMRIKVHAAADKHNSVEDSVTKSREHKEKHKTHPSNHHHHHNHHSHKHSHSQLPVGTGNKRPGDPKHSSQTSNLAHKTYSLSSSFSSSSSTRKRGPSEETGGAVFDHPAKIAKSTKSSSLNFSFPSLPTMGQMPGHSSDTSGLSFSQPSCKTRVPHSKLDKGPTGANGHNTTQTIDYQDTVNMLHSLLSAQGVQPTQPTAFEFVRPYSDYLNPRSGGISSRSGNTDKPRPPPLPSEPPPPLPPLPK
Outline: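 Full-length His-tagged human CDK9/CycT1 (insect cell, ~0.5 μg/mL) preincubated 15 min at 22 °C with compound in Tris pH 8.0, MgCl2, DTT buffer before reaction with biotinylated peptide substrate at high ATP (2 mM).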

| Compound | DC50 [1] | (IC50 CDK12 high ATP) to (Degradation DC50 CDK12) ratio [1] | IC50 [2] | IC50 [3] |
| --- | --- | --- | --- | --- |
| COc1cccc2[nH]c(CNc3nc(N4CCOCC4)nc4c(-c5nccs5)cnn34)nc12 [Example 414, N-[(4-methoxy-1H-benzimidazol-2-yl)methyl]-2-(morpholin-4-yl)-8-(1,3-thiazol-2-yl)pyrazolo [1,5-a][1,3,5]triazin-4-amine] | 32.5 nM | >176 | 687 nM | > 20 µM |
| CN(C)CCOc1nc(NCc2nc3ccccc3[nH]2)n2ncc(Br)c2n1 [Example 399, N-[(1H-benzimidazol-2-yl)methyl]-8-bromo-2-[2-(dimethylamino)ethoxy]pyrazolo[1,5-a][1,3,5]triazin-4-amine] | 66 nM | >303 | 384 nM | > 20 µM |
| CC(C)COc1nc(NCc2nc3ccccc3[nH]2)n2ncc(Br)c2n1 [Example 409, N-[(1H-benzimidazol-2-yl)methyl]-8-bromo-2-(2-methylpropoxy)pyrazolo[1,5-a][1,3,5]triazin-4-amine] | 29.8 nM | >531 | 343 nM | > 20 µM |
| Cc1cnn2c(NCc3nc4ccccc4[nH]3)nc(N3CCN(C)CC3)nc12 [Example 396, N-[(1H-benzimidazol-2-yl)methyl]-8-methyl-2-(4-methylpiperazin-1-yl)pyrazolo[1,5-a][1,3,5]triazin-4-amine] | 19.4 nM | >1031 | 157 nM | > 20 µM |
| Brc1cnn2c(NCc3nc4ccccc4[nH]3)nc(OC3CCOCC3)nc12 [Example 405, N-[(1H-benzimidazol-2-yl)methyl]-8-bromo-2-[(oxan-4-yl)oxy]pyrazolo[1,5-a][1,3,5]triazin-4-amine] | 113 nM | >176 | 439 nM | > 20 µM |
| CN1CCN(c2nc(NCc3nc4c(F)c(F)ccc4[nH]3)n3ncc(-c4nccs4)c3n2)CC1 [Example 415, N-[(4,5-difluoro-1H-benzimidazol-2-yl)methyl]-2-(4-methylpiperazin-1-yl)-8-(1,3-thiazol-2-yl)pyrazolo[1,5-a][1,3,5]triazin-4-amine] | 105 nM | >191 | 584 nM | > 20 µM |
| Cc1cnn2c(NCc3nc4c(F)c(F)ccc4[nH]3)nc(N3CCN(C)CC3)nc12 [Example 394, N-[(4,5-difluoro-1H-benzimidazol-2-yl)methyl]-8-methyl-2-(4-methylpiperazin-1-yl)pyrazolo[1,5-a][1,3,5]triazin-4-amine] | 5.65 nM | >3303 | 19.8 nM | > 20 µM |
| Cc1cnn2c(NCc3nc4ccccc4[nH]3)nc(N3CC4CCC(C3)N4)nc12 [Example 401, N-[(1H-benzimidazol-2-yl)methyl]-2-(3,8-diazabicyclo[3.2.1]octan-3-yl)-8-methylpyrazolo[1,5-a][1,3,5]triazin-4-amine] | 30.8 nM | >649 | 132 nM | > 20 µM |
| FC(F)n1cc(-c2cnn3c(NCc4nc5cc(Cl)c(Cl)cc5[nH]4)nc(N4CCOCC4)nc23)cn1 [Example 423, N-[(5,6-dichloro-1H-benzimidazol-2-yl)methyl]-8-[1-(difluoromethyl)-1H-pyrazol-4-yl]-2-(morpholin-4-yl)pyrazolo[1,5-a][1,3,5]triazin-4-amine] | 17.8 nM | >720 | 18.2 nM | > 20 µM |
| Cc1cnn2c(NCc3nc4ccccc4[nH]3)nc(N3CCOCC3)nc12 [Example 393, N-[(1H-benzimidazol-2-yl)methyl]-8-methyl-2-(morpholin-4-yl)pyrazolo[1,5-a][1,3,5]triazin-4-amine] | 22.3 nM | >897 | 120 nM | > 20 µM |
| Brc1cnn2c(NCc3nc4ccccc4[nH]3)nc(OCC3CC3)nc12 [Example 408, N-[(1H-benzimidazol-2-yl)methyl]-8-bromo-2-(cyclopropylmethoxy)pyrazolo[1,5-a][1,3,5]triazin-4-amine] | 56.8 nM | >352 | 741 nM | > 20 µM |
| NCCOCCOCCNc1nc(NCc2nc3ccccc3[nH]2)n2ncc(Br)c2n1 [Example 412, N2-{2-[2-(2-aminoethoxy)ethoxy]ethyl}-N4-[(1H-benzimidazol-2-yl)methyl]-8-bromopyrazolo[1,5-a][1,3,5]triazine-2,4-diamine] | 77.4 nM | >74 | 1910 nM | > 20 µM |
| Cc1cnn2c(NCc3nc4c(F)c(F)ccc4[nH]3)nc(N3CC4CCC(C3)N4)nc12 [Example 400, 2-(3,8-diazabicyclo[3.2.1]octan-3-yl)-N-[(4,5-difluoro-1H-benzimidazol-2-yl)methyl]-8-methylpyrazolo[1,5-a][1,3,5]triazin-4-amine] | 6.15 nM | >2712 | 20.3 nM | > 20 µM |
| FC(F)n1cc(-c2cnn3c(NCc4nc5ccccc5[nH]4)nc(N4CCOCC4)nc23)cn1 [Example 421, N-[(1H-benzimidazol-2-yl)methyl]-8-[1-(difluoromethyl)-1H-pyrazol-4-yl]-2-(morpholin-4-yl)pyrazolo[1,5-a][1,3,5]triazin-4-amine] | 21.6 nM | 397 | 87.5 nM | > 20 µM |
| COC(C)(C)COc1nc(NCc2nc3ccccc3[nH]2)n2ncc(Br)c2n1 [Example 403, N-[(1H-benzimidazol-2-yl)methyl]-8-bromo-2-(2-methoxy-2-methylpropoxy)pyrazolo[1,5-a][1,3,5]triazin-4-amine] | 43.1 nM | >464 | 524 nM | > 20 µM |
| COc1cccc2nc(CNc3nc(N4CCN(C)CC4)nc4c(-c5nccs5)cnn34)[nH]c12 [Example 416, N-[(7-methoxy-1H-benzimidazol-2-yl)methyl]-2-(4-methylpiperazin-1-yl)-8-(1,3-thiazol-2-yl)pyrazolo[1,5-a][1,3,5]triazin-4-amine] | 26.1 nM | >765 | 986 nM | > 20 µM |
| Brc1cnn2c(NCc3nc4ccccc4[nH]3)nc(OCCN3CCCC3)nc12 [Example 404, N-[(1H-benzimidazol-2-yl)methyl]-8-bromo-2-[2-(pyrrolidin-1-yl)ethoxy]pyrazolo[1,5-a][1,3,5]triazin-4-amine] | 114 nM | >175 | 1840 nM | > 20 µM |
| CN1CCN(c2nc(NCc3nc4cc(Cl)c(Cl)cc4[nH]3)n3ncc(-c4cnn(C)c4)c3n2)CC1 [Example 420, N-[(5,6-dichloro-1H-benzimidazol-2-yl)methyl]-2-(4-methylpiperazin-1-yl)-8-(1-methyl-1H-pyrazol-4-yl)pyrazolo[1,5-a][1,3,5]triazin-4-amine] | 80.6 nM | >248 | 525 nM | > 20 µM |
